In patent US10287305B2, “Substituted piperidine compound and use thereof” (Takeda Pharmaceutical Company Limited, priority 2016, dated 2019):

Molecular target: human orexin type 2 receptor (hOX2R) (Homo sapiens (Human), UniProt O43614)
Experiment: Measurement of orexin type 2 receptor agonist activity (Experimental Example 2-1, FLIPR TETRA, intracellular Ca2+)
Type: cell-based
Conditions: CHO dhfr- cells expressing hOX2R; for Emax: read-out: Emax (%); for Emax at 30 µM: value at 30 uM concentration, orexin B as full agonist = 100%
[1] = agonist activity, 10 nM human orexin B = 100%

human orexin type 2 receptor (hOX2R), sequence (O43614 whole entry): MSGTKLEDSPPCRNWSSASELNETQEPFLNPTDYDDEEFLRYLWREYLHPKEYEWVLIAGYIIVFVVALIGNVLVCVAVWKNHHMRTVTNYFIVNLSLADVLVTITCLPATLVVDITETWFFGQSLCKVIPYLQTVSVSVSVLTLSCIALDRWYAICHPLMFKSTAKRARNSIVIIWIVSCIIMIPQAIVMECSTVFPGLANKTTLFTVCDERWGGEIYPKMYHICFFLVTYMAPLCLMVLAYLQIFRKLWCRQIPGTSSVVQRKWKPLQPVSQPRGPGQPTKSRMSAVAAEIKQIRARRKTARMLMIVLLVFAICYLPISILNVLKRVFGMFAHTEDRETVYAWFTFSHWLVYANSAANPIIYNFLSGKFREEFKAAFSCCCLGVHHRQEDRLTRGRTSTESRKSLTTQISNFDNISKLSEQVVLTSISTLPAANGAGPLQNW

EC50 (FLIPR TETRA, Fluo-4AM) [µM] | Emax (FLIPR TETRA, Fluo-4AM) [%] | EC50 [1] [µM] | Emax at 30 µM [%] | SMILES
2.4 | 88 |  |  | CC(=O)N1CCC[C@H](NS(C)(=O)=O)[C@@H]1COC1CCC(c2ccccc2)C1 (relative stereo) [Example 337, N-(cis-1-acetyl-2-(((3-phenylcyclopentyl)oxy)methyl)-piperidin-3-yl)methanesulfonamide]
0.49 | 83 |  |  | COC(=O)N1CCC[C@H](NS(C)(=O)=O)[C@@H]1COC1CCC(c2ccccc2)C1 (relative stereo) [Example 338, methyl cis-3-((methylsulfonyl)amino)-2-(((3-phenylcyclopentyl)oxy)methyl)-piperidine-1-carboxylate]
0.011 | 101 |  |  | CCNC(=O)N1CCC[C@H](NS(C)(=O)=O)[C@@H]1COC1CCC(c2ccccc2)C1 (relative stereo) [Example 339, cis-N-ethyl-3-((methylsulfonyl)amino)-2-(((3-phenylcyclopentyl)oxy)methyl)-piperidine-1-carboxamide]
0.013 | 103 |  |  | CC(C)OC(=O)N1CCC[C@H](NS(C)(=O)=O)[C@@H]1CO[C@@H]1CCN(c2ncccn2)C[C@H]1F (relative stereo) [Example 341, isopropyl cis-2-(((trans-3-fluoro-1-(pyrimidin-2-yl)piperidin-4-yl)oxy)methyl)-3-((methylsulfonyl)amino)piperidine-1-carboxylate]
0.03 | 104 |  |  | CC(C)OC(=O)N1CCC[C@H](NS(C)(=O)=O)[C@@H]1CO[C@H]1CCN(c2ncccn2)C[C@H]1F (relative stereo) [Example 342, isopropyl cis-2-(((cis-3-fluoro-1-(pyrimidin-2-yl)piperidin-4-yl)oxy)methyl)-3-((methylsulfonyl)amino)piperidine-1-carboxylate]
0.022 | 93 |  |  | CC(C)OC(=O)N1CCC[C@H](NS(C)(=O)=O)[C@@H]1CO[C@@H]1CCN(c2ncccn2)[C@H](C)C1 (stereo in doubt) [Example 329, isopropyl cis-2-(((cis-2-methyl-1-(pyrimidin-2-yl)piperidin-4-yl)oxy)methyl)-3-((methylsulfonyl)amino)piperidine-1-carboxylate]
 |  | 0.044 | 106 | CC(=O)N1CCC[C@H](NS(C)(=O)=O)[C@@H]1CO[C@H]1CC[C@@H](c2ccccc2)CC1 [Example 4, N-((2R,3S)-1-acetyl-2-(((cis-4-phenylcyclohexyl)oxy)methyl)piperidin-3-yl)methanesulfonamide]
 |  | 0.25 | 100 | CS(=O)(=O)N[C@H]1CCCN[C@H]1CO[C@H]1CC[C@@H](c2cc(F)cc(F)c2)CC1 [Example 7, N-((2R,3S)-2-(((cis-4-(3,5-difluorophenyl)cyclohexyl)oxy)methyl)piperidin-3-yl)methanesulfonamide]
 |  | 0.0056 | 96 | CC(=O)N1CCC[C@H](NS(C)(=O)=O)[C@@H]1CO[C@H]1CC[C@@H](c2cc(F)cc(F)c2)CC1 [Example 8, N-((2R,3S)-1-acetyl-2-(((cis-4-(3,5-difluorophenyl)cyclohexyl)oxy)methyl)piperidin-3-yl)methanesulfonamide]
 |  | 0.22 | 113 | CS(=O)(=O)N[C@H]1CCCN[C@H]1CO[C@H]1CC[C@@H](c2cc(F)ccc2F)CC1 [Example 10, N-((2R,3S)-2-(((cis-4-(2,5-difluorophenyl)cyclohexyl)oxy)methyl)piperidin-3-yl)methanesulfonamide]
 |  | 0.002 | 114 | COC(=O)N1CCC[C@H](NS(C)(=O)=O)[C@@H]1CO[C@H]1CC[C@@H](c2cc(F)ccc2F)CC1 [Example 11, methyl (2R,3S)-2-(((cis-4-(2,5-difluorophenyl)cyclohexyl)oxy)methyl)-3-((methylsulfonyl)amino)piperidine-1-carboxylate]
 |  | 0.13 | 115 | CS(=O)(=O)N[C@H]1CCCN[C@H]1CO[C@H]1CC[C@@H](c2c(F)cccc2F)CC1 [Example 13, N-((2R,3S)-2-(((cis-4-(2,6-difluorophenyl)cyclohexyl)oxy)methyl)piperidin-3-yl)methanesulfonamide]
 |  | 0.0066 | 105 | CC(=O)N1CCC[C@H](NS(C)(=O)=O)[C@@H]1CO[C@H]1CC[C@@H](c2c(F)cccc2F)CC1 [Example 14, N-((2R,3S)-1-acetyl-2-(((cis-4-(2,6-difluorophenyl)cyclohexyl)oxy)methyl)piperidin-3-yl)methanesulfonamide]
 |  | 0.00084 | 99 | CS(=O)(=O)N[C@H]1CCCN(C(=O)C2CC2)[C@H]1CO[C@H]1CC[C@@H](c2cccc(F)c2)CC1 [Example 16, N-((2R,3S)-1-(cyclopropylcarbonyl)-2-(((cis-4-(3-fluorophenyl)cyclohexyl)oxy)methyl)piperidin-3-yl)methanesulfonamide]
 |  | 0.52 | 96 | CS(=O)(=O)N[C@H]1CCCN[C@H]1CO[C@H]1CC[C@@H](c2cccc(F)c2F)CC1 [Example 18, N-((2R,3S)-2-(((cis-4-(2,3-difluorophenyl)cyclohexyl)oxy)methyl)piperidin-3-yl)methanesulfonamide]
 |  | 0.012 | 102 | CC(=O)N1CCC[C@H](NS(C)(=O)=O)[C@@H]1CO[C@H]1CC[C@@H](c2cccc(F)c2F)CC1 [Example 19, N-((2R,3S)-1-acetyl-2-(((cis-4-(2,3-difluorophenyl)cyclohexyl)oxy)methyl)piperidin-3-yl)methanesulfonamide]
 |  |  | 100 | COC(=O)N1CCC[C@H](NS(C)(=O)=O)[C@@H]1CO[C@H]1CC[C@@H](c2cccc(F)c2F)CC1 [Example 20, methyl (2R,3S)-2-(((cis-4-(2,3-difluorophenyl)cyclohexyl)oxy)methyl)-3-((methylsulfonyl)amino)piperidine-1-carboxylate]
 |  | 0.2 | 108 | CS(=O)(=O)N[C@H]1CCCN[C@H]1CO[C@H]1CC[C@@H](c2c(F)ccc(F)c2F)CC1 [Example 21, N-((2R,3S)-2-(((cis-4-(2,3,6-trifluorophenyl)cyclohexyl)oxy)methyl)piperidin-3-yl)methanesulfonamide]
 |  | 0.0053 | 98 | CC(=O)N1CCC[C@H](NS(C)(=O)=O)[C@@H]1CO[C@H]1CC[C@@H](c2c(F)ccc(F)c2F)CC1 [Example 22, N-((2R,3S)-1-acetyl-2-(((cis-4-(2,3,6-trifluorophenyl)cyclohexyl)oxy)methyl)piperidin-3-yl)methanesulfonamide]
 |  | 1.2 | 90 | CS(=O)(=O)N[C@H]1CCCN[C@H]1CO[C@H]1CC[C@@H](c2ccccc2C(F)(F)F)CC1 [Example 23, N-((2R,3S)-2-(((cis-4-(2-(trifluoromethyl)phenyl)cyclohexyl)oxy)methyl)piperidin-3-yl)methanesulfonamide]
 |  | 0.021 | 102 | CC(=O)N1CCC[C@H](NS(C)(=O)=O)[C@@H]1CO[C@H]1CC[C@@H](c2ccccc2C(F)(F)F)CC1 [Example 24, N-((2R,3S)-1-acetyl-2-(((cis-4-(2-(trifluoromethyl)phenyl)cyclohexyl)oxy)methyl)piperidin-3-yl)methanesulfonamide]
 |  | 0.0079 | 94 | CS(=O)(=O)N[C@H]1CCCN(C(=O)CO)[C@H]1CO[C@H]1CC[C@@H](c2cccc(F)c2F)CC1 [Example 25, N-((2R,3S)-2-(((cis-4-(2,3-difluorophenyl)cyclohexyl)oxy)methyl)-1-glycoloylpiperidin-3-yl)methanesulfonamide]
 |  | 0.31 | 108 | COc1ccccc1[C@H]1CC[C@@H](OC[C@@H]2NCCC[C@@H]2NS(C)(=O)=O)CC1 [Example 27, N-((2R,3S)-2-(((cis-4-(2-methoxyphenyl)cyclohexyl)oxy)methyl)piperidin-3-yl)methanesulfonamide]
 |  | 0.0027 | 96 | COc1ccccc1[C@H]1CC[C@@H](OC[C@H]2[C@@H](NS(C)(=O)=O)CCCN2C(=O)C2CC2)CC1 [Example 28, N-((2R,3S)-1-(cyclopropylcarbonyl)-2-(((cis-4-(2-methoxyphenyl)cyclohexyl)oxy)methyl)piperidin-3-yl)methanesulfonamide]
 |  | 0.017 | 104 | CC(C)OC(=O)N1CCC[C@H](NS(=O)(=O)N(C)C)[C@@H]1COC1CCN(c2ncccn2)CC1 [Example 29, isopropyl (2R,3S)-3-((dimethylsulfamoyl)amino)-2-(((1-(pyrimidin-2-yl)piperidin-4-yl)oxy)methyl)piperidine-1-carboxylate]
 |  | 0.00066 | 95 | CS(=O)(=O)N[C@H]1CCCN(C(=O)C2CC2)[C@H]1CO[C@H]1CC[C@@H](c2ccccc2)CC1 [Example 31, N-((2R,3S)-1-(cyclopropylcarbonyl)-2-(((cis-4-phenylcyclohexyl)oxy)methyl)piperidin-3-yl)methanesulfonamide]
 |  | 0.015 | 102 | COC(=O)N1CCC[C@H](NS(C)(=O)=O)[C@@H]1CO[C@H]1CC[C@@H](c2ccccc2C(F)(F)F)CC1 [Example 32, methyl (2R,3S)-3-((methylsulfonyl)amino)-2-(((cis-4-(2-(trifluoromethyl)phenyl)cyclohexyl)oxy)methyl)piperidine-1-carboxylate]
 |  | 0.068 | 98 | CCS(=O)(=O)N[C@H]1CCCN(C(C)=O)[C@H]1CO[C@H]1CC[C@@H](C(C)C)CC1 [Example 33, N-((2R,3S)-1-acetyl-2-(((cis-4-isopropylcyclohexyl)oxy)methyl)piperidin-3-yl)ethanesulfonamide]
 |  | 0.097 | 98 | CC(=O)N1CCC[C@H](NS(C)(=O)=O)[C@@H]1CO[C@H]1CC[C@@H](C(C)C)CC1 [Example 70, N-((2R,3S)-1-acetyl-2-(((cis-4-isopropylcyclohexyl)oxy)methyl)piperidin-3-yl)methanesulfonamide]
